According to patent US3949075A, “Anti-microbial compounds of 2', 4' substituted anilides of substituted nitrosalicylic acid for quadruped animals” (Ferro Corporation, priority 1974, dated 1976):
Read-outs that look alike come from different tables or passages of the source.

Legend:
Haemonchus contortus = assay: Percent of Haemonchus destroyed or expelled in infected sheep (egg count after treatment); format: in vivo, Haemonchus contortus (in sheep)
Description: Two groups of sheep were used in the tests. One group was used as a non-medicated control, while the other group was treated with the compound under investigation. Helminth-free young lambs were infected with about 10,000 filariform larvae of Haemonchus contortus. In three weeks when the infection became apparent, egg counts were made to determine the density of the worm burden.
The egg count was carried out using the following modified Stoll method. Three grams of sheep feces were taken rectally from each animal and placed in a Stoll flask. To each flask, tap water was added to the top line. The fecal pellets were too hard to break down, the flasks were closed with rubber stoppers and kept in the refrigerator for several hours. The flasks were thoroughly shaken and a 1 ml. sample was drawn from the middle using a wide mouth pipette. This 1 ml. sample was transferred to an 8 ml. plastic tube, to which enough saturated sodium chloride solution was added to reach the rim. The tubes were then centrifuged for 10 minutes at 1500 r.p.m. Then sodium chloride solution was added with a medicine dropper forming a concave miniscus. A cover glass was carefully added and the tubes were kept in a refrigerator for ten to twenty minutes. During that period, the nematode ova flowed upward and adhered to the bottom of the cover glass slip. At the end of the 20-minute period, the cover slip was carefully detached from the miniscus and transferred to a microscopic slide. The ova were then counted under a microscope equipped with 10X ocular and 10X objective lens. Each ovum under the microscope represented 20 ova in the sample.
Animals with sufficiently high egg counts were taken out of the pool and housed in experimental pens. Since the salicylanilides of the present invention are water insoluble, the compounds were first ground using a mortar and pestle and then were placed in a carboxymethyl cellulose solution. The particles were further micronized ultrasonically. The compound was then administered to two or three animals by Oesophageal gavage. Control, untreated animals, received only the carboxymethyl cellulose solution in a similar manner. On the sixth and seventh day after treatment, fecal pellets were taken from the rectum of the control as well as the treated animals and egg counts were made.
The results of tests on sheep in a manner described, supra, using compounds of the present invention are given in Table 1, Examples 5 through 13. The numbers in the column headed "Haemonchus (15 mg/kg)" refer to the percent of parasites destroyed or expelled when the indicated compound was introduced into the rumen of sheep at a dosage of 15 milligrams per kilogram of body weight. The values under "Tolerance (mg/kg)" refer to the highest test dosage in the milligrams of anthelmintic per kilogram of body weight at which the sheep developed no toxic symptoms. "Tol." is an abbreviation for "tolerated". The symbols R1 and R2 refer to those of Formula I in these and other following examples.
(§1) The data of the tables were generated using procedures previously described. The compounds tested are disubstituted and, except for Example 50 which is dibromo, are dichloro. Where the position for the substituents is other than 2' and 4', it is indicated. Under the indicated microorganisms, the values given in this and the following tables, should be read as: percentage of microorganism killed/dose in milligrams per kilogram of body weight. Under "Tolerance", the term "Tol." means "tolerated", "Tox." means "toxic", and "Sym." means "symptoms of toxic reaction", all at the dosage value which follows. It will be appreciated that there is no sharp toxicity end point in determining toxicity to living sheep.

Fasciola hepatica = assay: Test for activity against liver flukes, Fasciola hepatica, in infected sheep; format: in vivo; details: Fasciola hepatica; sheep, 15 mg/kg; Tables VIII-XI; read-out: Fasciola hepatica, percentage of microorganism killed
Description: Test for activity against liver flukes were conducted as follows:
Eggs of Fasciola hepatica were collected from the bile of donor sheep. The eggs were embryonated and snails were infected (the genus Lymnaea serves as intermediate host) to produce Metacercariae which are the infective forms for sheep. Each sheep was infected with 250 metacercariae intraruminally. When the infection became patent in ca. 80 days, egg counts were carried out to determine the degree of worm burden. The liver was processed to recover F. hepatica in the untreated and treated sheep.
as §1

[1] = Haemonchus contortus, sheep, 15 mg/kg, Table V, read-out: Effectiveness at 15 mg/kg against Haemonchus
[2] = Haemonchus contortus, sheep, 15 mg/kg, Tables VIII-XI, read-out: Haemonchus, percentage of microorganism killed
[3] = Haemonchus contortus, read-out: Effectiveness at 15 mg/kg against Haemonchus, sheep, 15 mg/kg, Table V
[4] = Haemonchus contortus, sheep, intrarumenal, 15 mg/kg, Table II, read-out: Effectiveness in removal of Haemonchus

Cc1c([N+](=O)[O-])cc(C(C)(C)C)c(O)c1C(=O)Nc1cccc(Cl)c1 [31 Cl 3'-substitution]
inhibition in vivo at 15 mg/kg (Haemonchus contortus; [1]): 0% | inhibition in vivo at 15 mg/kg (Haemonchus contortus; [2]): 0%

Cc1c([N+](=O)[O-])cc(C(C)(C)C)c(O)c1C(=O)Nc1cccc(I)c1 [33 I 3'-substitution]
inhibition in vivo at 15 mg/kg (Haemonchus contortus; [3]): 0% | inhibition in vivo at 15 mg/kg (Haemonchus contortus; [2]): 14%

Cc1c([N+](=O)[O-])cc(C(C)(C)C)c(O)c1C(=O)Nc1cccc(C(F)(F)F)c1 [34 CF3 3'-substitution]
inhibition in vivo at 15 mg/kg (Haemonchus contortus; [1]): 2% | inhibition in vivo at 15 mg/kg (Haemonchus contortus; [2]): 2%

Cc1c([N+](=O)[O-])cc(C(C)(C)C)c(O)c1C(=O)Nc1ccc(I)cc1 [Example 9]
inhibition in vivo at 15 mg/kg (Fasciola hepatica): 0% | inhibition in vivo at 15 mg/kg (Haemonchus contortus; [3]): 93% | inhibition in vivo at 5 mg/kg (Haemonchus contortus; Haemonchus contortus, sheep, 5 mg/kg, Tables VIII-XI, read-out: Haemonchus, percentage of microorganism killed): 22% | inhibition in vivo at 15 mg/kg (Haemonchus contortus; [2]): 93% | Haemonchus (2 mg/kg), percent of parasites destroyed or expelled (Haemonchus contortus; sheep, into rumen, 2 mg/kg, Table 1): 14% | Haemonchus (5 mg/kg), percent of parasites destroyed or expelled (Haemonchus contortus; sheep, into rumen, 5 mg/kg, Table 1): 22% | Haemonchus (15 mg/kg), percent of parasites destroyed or expelled (Haemonchus contortus; sheep, into rumen, 15 mg/kg, Table 1): 93%

Cc1c([N+](=O)[O-])cc(C(C)(C)C)c(O)c1C(=O)Nc1ccccc1C(F)(F)F [Example 14]
inhibition in vivo at 15 mg/kg (Haemonchus contortus; [1]): 0% | inhibition in vivo at 15 mg/kg (Haemonchus contortus; [2]): 0% | inhibition in vivo at 15 mg/kg (Haemonchus contortus; [4]): 0%

Cc1c([N+](=O)[O-])cc(C(C)(C)C)c(O)c1C(=O)Nc1ccccc1F [Example 15]
inhibition in vivo at 15 mg/kg (Haemonchus contortus; [4]): 0%

Cc1c([N+](=O)[O-])cc(C(C)(C)C)c(O)c1C(=O)Nc1ccccc1Cl [Example 16]
inhibition in vivo at 15 mg/kg (Haemonchus contortus; [1]): 33% | inhibition in vivo at 15 mg/kg (Haemonchus contortus; [2]): 33% | inhibition in vivo at 15 mg/kg (Haemonchus contortus; [4]): 33%

Cc1c([N+](=O)[O-])cc(C(C)(C)C)c(O)c1C(=O)Nc1ccccc1Br [Example 17]
inhibition in vivo at 15 mg/kg (Haemonchus contortus; [1]): 0% | inhibition in vivo at 15 mg/kg (Haemonchus contortus; [2]): 0% | inhibition in vivo at 15 mg/kg (Haemonchus contortus; [4]): 0%

Cc1c([N+](=O)[O-])cc(C(C)(C)C)c(O)c1C(=O)Nc1ccccc1I [Example 18]
inhibition in vivo at 15 mg/kg (Haemonchus contortus; [3]): 0% | inhibition in vivo at 15 mg/kg (Haemonchus contortus; [2]): 0% | inhibition in vivo at 15 mg/kg (Haemonchus contortus; [4]): 0%

Cc1c([N+](=O)[O-])cc(C(C)(C)C)c(O)c1C(=O)Nc1ccc(S(N)(=O)=O)cc1 [Example 19]
inhibition in vivo at 15 mg/kg (Haemonchus contortus; [4]): 0%

CCOC(=O)c1ccc(NC(=O)c2c(C)c([N+](=O)[O-])cc(C(C)(C)C)c2O)cc1 [Example 20]
inhibition in vivo at 15 mg/kg (Haemonchus contortus; [4]): 18%

Cc1ccc(NC(=O)c2c(C)c([N+](=O)[O-])cc(C(C)(C)C)c2O)c(C)c1 [Example 21]
inhibition in vivo at 15 mg/kg (Haemonchus contortus; [4]): 13%

COc1cc(Cl)ccc1NC(=O)c1c(C)c([N+](=O)[O-])cc(C(C)(C)C)c1O [Example 22]
inhibition in vivo at 15 mg/kg (Haemonchus contortus; [4]): 10%
